Test results reported in patent EP4806891A1 (Kangbaida (Sichuan) Biotechnology Co., Ltd., priority 2023, dated 2025).

What follows are molecules tested against T1, HEK-Blue-hTLR9 cells (Homo sapiens, UniProt Q9NR96) (assay: HEK-Blue-hTLR9 cell inhibition assay). Conditions: ODN2006 1 µM, 16 h, OD 620 nm, read-out: TLR9 IC50.
T1 construct: expressed in transfected cells; host or cells: HEK-Blue-hTLR9 cells (HEK293-derived reporter line)
T1 sequence (Q9NR96 26-1032): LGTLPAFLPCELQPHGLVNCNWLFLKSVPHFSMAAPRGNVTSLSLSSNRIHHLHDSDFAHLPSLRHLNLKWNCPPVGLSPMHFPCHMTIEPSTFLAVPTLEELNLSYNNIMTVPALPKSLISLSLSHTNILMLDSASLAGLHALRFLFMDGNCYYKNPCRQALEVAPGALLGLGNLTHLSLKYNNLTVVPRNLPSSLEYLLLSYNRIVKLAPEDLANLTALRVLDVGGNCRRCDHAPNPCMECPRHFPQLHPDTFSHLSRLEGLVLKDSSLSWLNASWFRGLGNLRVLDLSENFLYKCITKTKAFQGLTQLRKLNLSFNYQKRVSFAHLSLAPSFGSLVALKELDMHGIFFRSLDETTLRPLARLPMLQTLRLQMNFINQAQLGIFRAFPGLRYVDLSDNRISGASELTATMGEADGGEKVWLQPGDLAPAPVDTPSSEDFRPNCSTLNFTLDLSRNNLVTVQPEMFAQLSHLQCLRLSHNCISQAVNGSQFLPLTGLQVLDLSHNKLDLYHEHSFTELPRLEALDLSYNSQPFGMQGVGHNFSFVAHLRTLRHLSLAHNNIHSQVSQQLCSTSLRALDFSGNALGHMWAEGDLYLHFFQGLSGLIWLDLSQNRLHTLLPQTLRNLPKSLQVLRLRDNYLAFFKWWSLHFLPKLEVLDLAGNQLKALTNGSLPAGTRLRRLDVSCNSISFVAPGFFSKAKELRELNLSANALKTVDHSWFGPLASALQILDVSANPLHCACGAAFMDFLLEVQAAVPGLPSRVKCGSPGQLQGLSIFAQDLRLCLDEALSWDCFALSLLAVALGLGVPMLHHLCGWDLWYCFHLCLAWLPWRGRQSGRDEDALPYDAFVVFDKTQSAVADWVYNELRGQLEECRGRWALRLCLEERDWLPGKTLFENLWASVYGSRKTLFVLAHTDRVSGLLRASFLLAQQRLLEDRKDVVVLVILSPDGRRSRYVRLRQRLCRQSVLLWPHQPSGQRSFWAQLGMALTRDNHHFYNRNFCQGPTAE
Format: cell-based
Experimental: HEK-Blue-hTLR7/8/9 cell inhibition assay
1. HEK-Blue-hTLR7/8 cells (1 × 10^4 cells/well) and HEK-Blue-hTLR9 cells (1.5 × 10^4 cells/well) were seeded in a 384-well cell culture plate, with a volume of 30 µL per well. The plate was incubated at 37°C in a 5% CO2 incubator for 4 h. 2. The compound was prepared with DMSO and diluted in DMEM medium to 10 concentrations (1:3 dilution), with final concentrations of 10000, 3333.3, 1111.1, 370.4, 123.5, 41.2, 13.7, 4.6, 1.5, and 0.5 nM; R848 was prepared with DMSO and diluted in DMEM medium, with final concentrations of 0.8 µM (HEK-Blue-hTLR7) and 3 µM (HEK-Blue-hTLR8); ODN2006 was prepared with endotoxin-free water and diluted in DMEM medium, with a final concentration of 1 µM. 3. Cells treated with DMSO were used as the blank control group, while cells treated solely with Resiquimod (R848) were used as the positive control group for HEK-Blue-hTLR7/8, and cells treated solely with ODN2006 were used as the positive control group for HEK-Blue-hTLR9. Cells treated with the test compound together with R848 or ODN2006 were used as the test group. Two parallel wells were set for each group and were placed at 37°C in a 5% CO2 incubator for incubation. 4. After being incubated for 4 h, the 384-well plate of HEK-Blue-hTLR7/8 was taken out from the incubator, and R848 alone or both R848 and the diluted compound were separately added into each well. The plate was placed at 37°C in a 5% CO2 incubator for incubation for 16 h; the 384-well plate of HEK-Blue-hTLR9 was taken out from the incubator, and ODN2006 alone or both ODN2006 and the diluted compound were added separately to each well. The plate was incubated at 37°C in a 5% CO2 incubator for 16 h. 5. After being incubated for 16 h, the 384-well plate was removed from the incubator and centrifuged at 1000 rpm for 1 minute. The optical density value of each well at 620 nm was measured using a multifunctional microplate reader. 6. The cell inhibition rate was calculated as (1-(OD620 test group-OD620 blank group)/(OD620 positive group-OD620 blank group))×100%, and the half maximal inhibitory concentration (IC50) was calculated through curve fitting. Table 1: Activity of the compounds of the present disclosure in HEK-Blue-hTLR7/8/9 cellular assays

Compound	IC50
Cn1c(CN2CCCC2)nnc1[C@]12CN(c3ccc(C#N)c4ncccc34)C[C@@]1(C(F)(F)F)C2 [Compound 44, 5-((1S,5R)-1-(4-methyl-5-(pyrrolidin-1-ylmethyl)-4H-1,2,4-triazol-3-yl)-5-(trifluoromethyl)-3-azabicyclo[3.1.0]hexan-3-yl)quinoline-8-carbonitrile]	> 10 µM
N#Cc1ccc(N2C[C@]3(c4nnc(C5CNCC(F)C5)o4)C[C@]3(C(F)(F)F)C2)c2cccnc12 (stereo partly drawn) [Compound 45, 5-((1R,5S)-1-((difluoro-3-methyl)-12-fluoraneyl)-5-(5-(5-fluoropiperidin-3-yl)-1,3,4-oxadiazol-2-yl)-3-azabicyclo[3.1.0]hexan-3-yl)quinoline-8-carbonitrile]	> 10 µM
N#Cc1ccc(N2C[C@]3(c4nnc(C5(F)CCNC5)o4)C[C@]3(C(F)(F)F)C2)c2cccnc12 (stereo partly drawn) [Compound 46, 5-((1S,5R)-1-(5-(3-fluoropyrrolidin-3-yl)-1,3,4-oxadiazol-2-yl)-5-(trifluoromethyl)-3-azabicyclo[3.1.0]hexan-3-yl)quinoline-8-carbonitrile]	> 10 µM
CN1CCC(F)(c2nnc([C@]34CN(c5ccc(C#N)c6ncccc56)C[C@@]3(C(F)(F)F)C4)o2)C1 (stereo partly drawn) [Compound 47, 5-((1S,5R)-1-(5-(3-fluoro-1-methylpyrrolidin-3-yl)-1,3,4-oxadiazol-2-yl)-5-(trifluoromethyl)-3-azabicyclo[3.1.0]hexan-3-yl)quinoline-8-carbonitrile]	> 10 µM
CN1CC(F)(c2nnc([C@]34CN(c5ccc(C#N)c6ncccc56)C[C@@]3(C(F)(F)F)C4)o2)C1 [Compound 49, 5-((1S,5R)-1-(5-(3-fluoro-1-methylazetidin-3-yl)-1,3,4-oxadiazol-2-yl)-5-(trifluoromethyl)-3-azabicyclo[3.1.0]hexan-3-yl)quinoline-8-carbonitrile]	> 10 µM
CN(C)CCc1nnc([C@]23CN(c4ccc(C#N)c5ncccc45)C[C@@]2(C(F)(F)F)C3)o1 [Compound 51, 5-((1S,5R)-1-(5-(2-(dimethylamino)ethyl)-1,3,4-oxadiazol-2-yl)-5-(trifluoromethyl)-3-azabicyclo[3.1.0]hexan-3-yl)quinoline-8-carbonitrile]	> 10 µM
N#Cc1ccc(N2C[C@]3(c4nnc([C@H]5CN(CC(N)=O)CCO5)o4)C[C@]3(C(F)(F)F)C2)c2cccnc12 [Compound 56, 2-((R)-2-(5-((1S,5R)-3-(8-cyanoquinolin-5-yl)-5-(trifluoromethyl)-3-azabicyclo[3.1.0]hexan-1-yl)-1,3,4-oxadiazol-2-yl)morpholino)acetamide]	> 10 µM

Further lines, results first:

IC50	Compound
> 10 µM	N#Cc1ccc(N2C[C@]3(c4nnc(CCN5CCOCC5)o4)C[C@]3(C(F)(F)F)C2)c2cccnc12 [Compound 43, 5-((1S,5R)-1-(5-(morpholinoethyl)-1,3,4-oxadiazol-2-yl)-5-(trifluoromethyl)-3-azabicyclo[3.1.0]hexan-3-yl)quinoline-8-carbonitrile]
> 1 µM	CN1CCC(c2nnc([C@]34CN(c5ccc(C#N)c6ncccc56)C[C@@]3(C(F)(F)F)C4)o2)C(F)C1 (stereo partly drawn) [Compound 50, 5-((1S,5R)-1-(5-(3-fluoro-1-methylpiperidin-4-yl)-1,3,4-oxadiazol-2-yl)-5-(trifluoromethyl)-3-azabicyclo[3.1.0]hexan-3-yl)quinoline-8-carbonitrile]
< 1 µM	N#Cc1ccc(N2C[C@]3(c4nnc(C56CCC(N)(CC5)CC6)o4)C[C@]3(C(F)(F)F)C2)c2cccnc12 [Compound 52, 5-((1S,5R)-1-(5-(4-aminobicyclo[2.2.2]octan-1-yl)-1,3,4-oxadiazol-2-yl)-5-(trifluoromethyl)-3-azabicyclo[3.1.0]hexan-3-yl)quinoline-8-carbonitrile]
> 1 µM	CN(C)C12CCC(c3nnc([C@]45CN(c6ccc(C#N)c7ncccc67)C[C@@]4(C(F)(F)F)C5)o3)(CC1)CC2 [Compound 53, 5-((1S,5R)-1-(5-(4-(dimethylamino)bicyclo[2.2.2]octan-1-yl)-1,3,4-oxadiazol-2-yl)-5-(trifluoromethyl)-3-azabicyclo[3.1.0]hexan-3-yl)quinoline-8-carbonitrile]
> 1 µM	N#Cc1ccc(N2C[C@]3(c4nnc(C56CCC(NC(=O)[C@@H]7COCCN7)(CC5)CC6)o4)C[C@]3(C(F)(F)F)C2)c2cccnc12 [Compound 54, (S)-N-(4-(5-((1S,5R)-3-(8-cyanoquinolin-5-yl)-5-(trifluoromethyl)-3-azabicyclo[3.1.0]hexan-1-yl)-1,3,4-oxadiazol-2-yl)bicyclo[2.2.2]octan-1-yl)morpholine-3-carboxamide]
> 1 µM	CN1CCC(c2nnc([C@]34CN(c5ccc(C#N)n6ncc(F)c56)C[C@@]3(C(F)(F)F)C4)o2)CC1 [Compound 57, 3-fluoro-4-((1S,5R)-1-(5-(1-methylpiperidin-4-yl)-1,3,4-oxadiazol-2-yl)-5-(trifluoromethyl)-3-azabicyclo[3.1.0]hexan-3-yl)pyrazolo[1,5-a]pyridine-7-carbonitrile]
> 1 µM	CN1CCC(c2nnc([C@]34CN(c5ccc(C#N)n6nccc56)C[C@@]3(C(F)(F)F)C4)o2)CC1 [Compound 59, 4-((1S,5R)-1-(5-(1-methylpiperidin-4-yl)-1,3,4-oxadiazol-2-yl)-5-(trifluoromethyl)-3-azabicyclo[3.1.0]hexan-3-yl)pyrazolo[1,5-a]pyridine-7-carbonitrile]
< 1 µM	N#Cc1ccc(N2C[C@]3(c4nnc(C5(F)CCNCC5)o4)C[C@]3(C(F)(F)F)C2)c2cccnc12 [Compound 60, 5-((1S,5R)-1-(5-(4-fluoropiperidin-4-yl)-1,3,4-oxadiazol-2-yl)-5-(trifluoromethyl)-3-azabicyclo[3.1.0]hexan-3-yl)quinoline-8-carbonitrile]
> 1 µM	COc1ccc(N2C[C@]3(c4nnc(C5CCN(C)CC5)o4)C[C@]3(C(F)(F)F)C2)c2cccnc12 [Compound 66, 2-((1S,5R)-3-(8-methoxyquinolin-5-yl)-5-(trifluoromethyl)-3-azabicyclo[3.1.0]hexan-1-yl)-5-(1-methylpiperidin-4-yl)-1,3,4-oxadiazole]
> 1 µM	CN1CCC(n2cc([C@]34CN(c5ccc(C#N)c6ncccc56)C[C@@]3(C(F)(F)F)C4)nn2)CC1 [Compound 71, 5-((1S,5R)-1-(1-(1-methylpiperidin-4-yl)-1H-1,2,3-triazol-4-yl)-5-(trifluoromethyl)-3-azabicyclo[3.1.0]hexan-3-yl)quinoline-8-carbonitrile]
> 1 µM	FC(F)(F)c1ccc(N2C[C@]3(c4nnc(C5CCNCC5)o4)C[C@]3(C(F)(F)F)C2)c2cccnc12 [Compound 75, 2-(piperidin-4-yl)-5-((1S,5R)-5-(trifluoromethyl)-3-(8-(trifluoromethyl)quinolin-5-yl)-3-azabicyclo[3.1.0]hexan-1-yl)-1,3,4-oxadiazole]
